Assay results taken from PMC10051705, “Leishmanicidal Activity of Guanidine Derivatives against Leishmania infantum” (Tropical Medicine and Infectious Disease, 2023).
Marks after values point to notes of the source that are not given here.

Experiments:
[1] = test system: human red blood cells; experiment: red blood cell lysis assay; assay type: cell-based; settings: 1 h, 37 °C
Description: The hemolytic activities of guanidine compounds were measured using human red blood cells from healthy adults (n = 3) according to methods previously described. Briefly, 80 µL of a 5% erythrocyte/phosphate-buffered saline (PBS) suspension was mixed with 20 µL of LQOFG-2, LQOFG-6, LQOFG-7, (1000 to 7.8 µM), and AmB (100 to 0.78 µM). After incubation at 37 °C for 1 h, 200 µL of PBS (1.5 mM KH2PO4, 8.1 mM Na2HPO4, 136.9 mM NaCl, and 2.6 mM KCl, pH 7.2) was added to stop the hemolysis process, and the samples were centrifuged for 10 min at 1000× g. The supernatants were collected, and the extent of hemolysis was measured spectrophotometrically at 540 nm. The hemolysis percentage was determined as [(Abssam − Abscon)/(Abstot − Abscon) × 100], where Abssam is the absorbance of the sample, Abscon is the absorbance of the blank control (without drugs), and Abstot is the absorbance of total hemolysis (replacing the sample solution with an equal volume of ultrapure water (Direct-Q UV®, Guyancourt, France)).

[2] = test system: L. infantum axenic amastigotes; experiment: apoptosis/necrosis profiling, annexin V/PI staining, axenic amastigotes; assay type: cell-based, Leishmania infantum
Description: (§1) To evaluate both apoptosis and necrosis, promastigote forms of L. infantum in the log phase of growth were incubated at several concentrations based on the IC50 values of LQOFG-2 (6.35; 12.7, 25.4, and 50.8 µM) LQOFG-6 (12.2, 24.4, 48.8 and 97.6 µM), and LQOFG-7 (11.65, 23.3, 46.6 and 93.2 µM), and AmB (1.5 and 6 µM) was used as the positive control. The plates were incubated for 24 h at 26 °C ± 1 °C in a B.O.D. incubator. After incubation, the promastigotes were washed three times in cold PBS, resuspended in binding buffer (10-mM HEPES, 140-mM NaCl, and 2.5-mM CaCl2, pH 7.4), and stained using a FITC Annexin V/Dead Cell Apoptosis Kit (BD Biosciences, San Jose, CA, USA) according to the manufacturer’s instructions. The stained cells were diluted and suspended in an Annexin V binding buffer (BD Biosciences, San Jose, CA, USA). Annexin V-FITC/propidium iodide (PI)-stained cells were analyzed using a BD FACSCanto II flow cytometer (BD Biosciences, San Jose, CA, USA). The raw data were analyzed using FlowJo 10.0.7 software (TreeStar Inc., Ashland, OR, USA).
To evaluate both apoptosis and necrosis of the amastigote-like forms of L. infantum, the protocol was followed. In each well, amastigotes were treated with the guanidine compounds and controls.

[3] = test system: monocytes in PBMCs; experiment: nitrite assay (Griess reaction) in PBMC/monocytes infected or not with L. infantum; assay type: cell-based, human; settings: for nitrite production: compound at 1× EC50, 24 h
Description: To perform the nitrite assay, PBMCs were obtained from five healthy volunteers (3 males, mean age 28.67 ± 2.96; and 2 females, mean age 28.50 ± 0.5) from João Pessoa, PB Brazil. Briefly, peripheral blood was diluted 1:1 with phosphate-buffered saline (PBS) and slowly layered over using Ficoll® Paque PLUS (GE Healthcare, Waukesha, WI, USA). Tubes were centrifuged at 400× g for 40 min at 20 °C. After centrifugation, PBMCs were harvested, washed three times with PBS, and resuspended in RPMI medium supplemented with antibiotics (penicillin 200 U/mL and streptomycin 0.1 mg/mL), 1 mM l-glutamine, and 10% inactivated human serum. Cell viability was assessed using a trypan blue dye exclusion assay. Cells were counted using a hemocytometer.
Promastigotes were prepared as previously described. Briefly, to confirm the infection, the L. infantum promastigotes were labeled with carboxyfluorescein diacetate succinimidyl ester (CFSE) (CellTrace ™ CFSE Cell Proliferation Kit; Eugene, OR, USA). The suspension was incubated for 15 min at 5% CO2, 37 °C, and washed three times with PBS containing 10% inactivated FBS producing CFSE-labeled L. infantum, which was added to PBMCs. The infection ratio was set at 1:10 (monocyte: L. infantum) for 3 h. After the infection, cells were washed three times with PBS supplemented with 10% FBS.
The plates were incubated for 24 h in a 5% CO2 incubator at 37 °C. The plates were centrifuged at 200× g for 8 min at 4 °C, and the supernatant was collected to measure reactive nitrogen production. CD14 surface antibody (PERCP-Cy5.5; clone MΦP9) was used for monocyte labeling (Figure S1). After adding the antibody, the plate was incubated at 4 °C for 15 min, protected from light. The cells were washed with ice-cold PBS buffer. The plate was centrifuged at 200× g again for 10 min at 4 °C. The supernatant was removed, the cells were resuspended in 100 µL of PBS buffer and 100 µL of 4% formaldehyde solution, then read on a flow cytometer (BD FACSCanto II, BD Biosciences, San Jose, CA, USA). FlowJo v.10.8.1 software was used to analyze the raw data. After obtaining PBMC, the cells were plated and incubated with LQOFG-7 and AmB at a concentration of 1× the EC50 value, with media or lipopolysaccharide (LPS) stimulus (lipopolysaccharide derived from Escherichia coli, Sigma-Aldrich O111:B4) at 100 ng/mL [26, 27, 28]. The culture supernatants from those infected and non-infected were evaluated for the stable end-product of reactive nitrogen species (NO, nitrates, and nitrites) using the Griess reaction, according to the Cayman Chemical instruction manual (Cayman Chemical, Ann Arbor, MI, USA). The nitrite level was determined by measuring the absorbance at a wavelength of 540 nm using a microplate reader (BioTek-ELx800).

[4] = test system: L. infantum promastigotes; experiment: apoptosis/necrosis profiling, annexin V/PI staining, promastigotes; assay type: cell-based, Leishmania infantum
Description: as §1

For `C[C@@H]1[C@H](O)[C@@H](C)/C=C/C=C/C=C/C=C/C=C/C=C/C=C/[C@H](O[C@@H]2O[C@H](C)[C@@H](O)[C@H](N)[C@@H]2O)C[C@@H]2O[C@](O)(C[C@@H](O)C[C@@H](O)[C@H](O)CC[C@@H](O)C[C@@H](O)CC(=O)O[C@H]1C)C[C@H](O)[C@H]2C(=O)O` [Amphotericin B, reference compound], the “HC50, toxicity to red blood cells” value [1] was 7.10 ± 2.09 µM, the “% cells, Early Apoptosis (AV+, PI−)” value ([2]; 1 × EC50, 24 h) was 4.73 ± 0.97% and the “% cells, Late Apoptosis (AV+, PI+)” value ([2]; 1 × EC50, 24 h) was 57.50 ± 1.72 ^d %. The “% cells, Necrosis (AV−, PI+)” value ([2]; 1 × EC50, 24 h) was 11.52 ± 1.89%, the “% cells, Late Apoptosis (AV+, PI+)” value ([2]; 1 × EC50, 24 h, listed as AmB) was 57.50 ± 1.72% and the “% cells, Early Apoptosis (AV+, PI−)” value ([2]; 4 × EC50, 24 h) was 0.60 ± 0.42%. The “% cells, Late Apoptosis (AV+, PI+)” value ([2]; 4 × EC50, 24 h) was 97.87 ± 1.01 ^d %, the “% cells, Necrosis (AV−, PI+)” value ([2]; 4 × EC50, 24 h) was 0.96 ± 0.33 ^d % and the “% cells, Late Apoptosis (AV+, PI+)” value ([2]; 4 × EC50, 24 h, listed as AmB) was 97.87 ± 1.01%. For the same compound, the nitrite production ([3]; monocytes infected with L. infantum, LPS-activated (100 ng/mL)) was 13.6 ± 4.25 µM, the “increase in nitrite production (in words)” value ([3]; monocytes infected with L. infantum, treatment at EC50) was “no significant increase” and the “% cells, Early Apoptosis (AV+, PI−)” value ([4]; 1× IC50, 24 h) was 0.67 ± 0.27%. For the same compound, the “% cells, Late Apoptosis (AV+, PI+)” value ([4]; 1× IC50, 24 h) was 4.30 ± 0.28%, the “% cells, Necrosis (AV−, PI+)” value ([4]; 1× IC50, 24 h) was 7.64 ± 1.17% and the “% cells, Early Apoptosis (AV+, PI−)” value ([4]; 4× IC50, 24 h) was 0.27 ± 0.09%. For the same compound, the “% cells, Late Apoptosis (AV+, PI+)” value ([4]; 4× IC50, 24 h) was 65.83 ± 1.85% and the “% cells, Necrosis (AV−, PI+)” value ([4]; 4× IC50, 24 h) was 33.10 ± 1.90%.

For `O=C(/N=C(/NCc1ccccc1)Nc1ccc(I)cc1)c1ccccc1` [LQOFG-7, (Z)-N-((benzylamine)((4-iodophenyl)amino)methylene)benzamide], the “HC50, toxicity to red blood cells” value [1] was over 1000 µM, the “% cells, Early Apoptosis (AV+, PI−)” value ([2]; 0.5 × EC50, 24 h) was 5.56 ± 0.46 ^a % and the “% cells, Late Apoptosis (AV+, PI+)” value ([2]; 0.5 × EC50, 24 h) was 35.53 ± 3.13 ^c %. The “% cells, Necrosis (AV−, PI+)” value ([2]; 0.5 × EC50, 24 h) was 9.83 ± 1.27%, the “% cells, Early Apoptosis (AV+, PI−)” value ([2]; 1 × EC50, 24 h) was 5.84 ± 0.57 ^b % and the “% cells, Late Apoptosis (AV+, PI+)” value ([2]; 1 × EC50, 24 h) was 44.20 ± 1.01 ^d %. The “% cells, Necrosis (AV−, PI+)” value ([2]; 1 × EC50, 24 h) was 13.53 ± 0.32%, the “% cells, Early Apoptosis (AV+, PI−)” value ([2]; 2 × EC50, 24 h) was 10.02 ± 1.53 ^d % and the “% cells, Late Apoptosis (AV+, PI+)” value ([2]; 2 × EC50, 24 h) was 36.70 ± 10.35 ^d %. The “% cells, Necrosis (AV−, PI+)” value ([2]; 2 × EC50, 24 h) was 5.63 ± 1.24%, the “% cells, Early Apoptosis (AV+, PI−)” value ([2]; 4 × EC50, 24 h) was 8.01 ± 0.14 ^d % and the “% cells, Late Apoptosis (AV+, PI+)” value ([2]; 4 × EC50, 24 h) was 63.27 ± 0.59 ^d %. The “% cells, Necrosis (AV−, PI+)” value ([2]; 4 × EC50, 24 h) was 12.27 ± 0.48%, the nitrite production ([3]; monocytes infected with L. infantum, not LPS-activated, untreated infected 0.367 ± 1.48 µM) was 13.5 ± 1.30 µM and the nitrite production ([3]; uninfected human monocytes (PBMC), untreated control 3.81 ± 1.36 µM) was 10.5 ± 3.58 µM. The “% cells, Early Apoptosis (AV+, PI−)” value ([4]; 0.5× IC50, 24 h) was 0.28 ± 0.05%, the “% cells, Late Apoptosis (AV+, PI+)” value ([4]; 0.5× IC50, 24 h) was 0.47 ± 0.07% and the “% cells, Necrosis (AV−, PI+)” value ([4]; 0.5× IC50, 24 h) was 0.87 ± 0.17%. The “% cells, Early Apoptosis (AV+, PI−)” value ([4]; 1× IC50, 24 h) was 0.77 ± 0.04%, the “% cells, Late Apoptosis (AV+, PI+)” value ([4]; 1× IC50, 24 h) was 0.41 ± 0.08% and the “% cells, Necrosis (AV−, PI+)” value ([4]; 1× IC50, 24 h) was 1.19 ± 0.12%. The “% cells, Early Apoptosis (AV+, PI−)” value ([4]; 2× IC50, 24 h) was 0.76 ± 0.10%, the “% cells, Late Apoptosis (AV+, PI+)” value ([4]; 2× IC50, 24 h) was 0.26 ± 0.09% and the “% cells, Early Apoptosis (AV+, PI−)” value ([4]; 4× IC50, 24 h) was 0.39 ± 0.08%. The “% cells, Late Apoptosis (AV+, PI+)” value ([4]; 4× IC50, 24 h) was 0.18 ± 0.07%.
